Results published in patent publication US20240025906A1 (NEURON23, INC., priority 2022, published 2024).
Where two headings read alike, the source gives them in different places.

Key:
[1] = tested on: JAK1/TYK2 pSTAT5 (Tyr694/699) in THP-1 cell line; experiment: IFNa-stimulated JAK1/TYK2 pSTAT5 (Tyr694/699) inhibition cellular assay, AlphaLISA; type: cell-based; conditions: Homo sapiens, THP-1 cells, AlphaLISA (Assay B)
In short: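 The readout is AlphaLISA signal at 615 nm for phospho-STAT5 in THP-1 lysates after IFNa stimulation (added at 100 ng/mL, 30 min, 37 °C). Cells had compound for 1 h beforehand across eight 6-fold concentrations up to 10000 nM final. IC50s are 4PL fits with bottom and Hill slope constrained.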

TYK2 JH2 = biological target: T1, TYK2 JH2 (Homo sapiens, UniProt P29597); experiment: TYK2 JH2 binding assay (KINOMEscan KdELECT competitive binding); conditions: TYK2 JH2 domain
T1 construct: purchased DiscoverX (KINOMEscan KdELECT service); host or cells: E. coli BL21-derived (T7 phage display) or HEK-293
In short: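 Beads carrying a biotinylated ligand were mixed with tagged JH2 kinase and compound (11 points, 3-fold steps, 0.9% DMSO) and shaken 1 h at room temperature. After washing, kinase was released with 0.5 μM untagged ligand over 30 min and measured by qPCR to derive Kd.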

[2] = IFNa-stimulated, read-out: Cellular_THP1_IFNa-pSTATS_TYK2
[3] = KINOMEscan KdELECT (Assay A), read-out: Biochemical TYK2_DiscoverX_JH2_BND_Kd
[4] = DiscoverX KINOMEscan KdELECT (Assay A), read-out: Biochemical TYK2_DiscoverX_JH2_BND_Kd
[5] = IFNa-stimulated, read-out: Cellular THP1_IFNa-pSTATS_IC50
[6] = KINOMEscan KdELECT (Assay A), read-out: Biochemical TYK2_JH2_Kd

T1 sequence (P29597 589-875 limits assumed): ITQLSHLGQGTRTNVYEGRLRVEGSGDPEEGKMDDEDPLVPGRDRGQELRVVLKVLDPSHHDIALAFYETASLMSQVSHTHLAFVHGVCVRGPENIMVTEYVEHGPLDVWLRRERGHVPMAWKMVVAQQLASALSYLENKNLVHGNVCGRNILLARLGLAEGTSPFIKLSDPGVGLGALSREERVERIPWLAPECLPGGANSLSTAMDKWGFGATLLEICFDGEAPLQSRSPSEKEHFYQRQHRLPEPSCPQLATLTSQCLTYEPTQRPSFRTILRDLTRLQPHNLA

Row | SMILES | IC50 [1, 2] | Kd (TYK2 JH2; [3]) | Kd (TYK2 JH2; [4]) | further results
1 | CNc1ncc(C#Cc2cccc3c2SCCC3=O)c2cc(NC(=O)C3CC3)ncc12 [Example 975, N-[8-(methylamino)-5-[2-(4-oxothiochroman-8-yl)ethynyl]-2,7-naphthyridin-3-yl]cyclopropanecarboxamide] | ≤ 500 nM | ≤ 100 nM | – | –
2 | CNc1ncc(-c2nc(-c3ccccc3)co2)c2cc(NC(=O)C3CC3)ncc12 [Example 157, N-(8-(methylamino)-5-(4-phenyloxazol-2-yl)-2,7-naphthyridin-3-yl)cyclopropanecarboxamide] | – | – | – | IC50 [1, 5]: ≤ 500 nM; Kd (TYK2 JH2; [6]): ≤ 100 nM
3 | CNc1ncc(-c2ccn(Cc3ccccn3)n2)c2cc(NC(=O)C3CC3)ncc12 [Example 154, N-(8-(methylamino)-5-(1-(pyridin-2-ylmethyl)-1H-pyrazol-3-yl)-2,7-naphthyridin-3-yl)cyclopropanecarboxamide] | – | – | – | IC50 [1, 5]: > 500 nM; Kd (TYK2 JH2; [6]): ≤ 100 nM
4 | CNc1ncc(-c2nc3cc(O[C@H]4C[C@@H](OC)C4)ccc3o2)c2cc(NC(=O)C3CC3)ncc12 [Example 200, N-(5-(5-((1s,3s)-3-methoxycyclobutoxy)benzo[d]oxazol-2-yl)-8-(methylamino)-2,7-naphthyridin-3-yl)cyclopropanecarboxamide] | ≤ 500 nM | – | ≤ 100 nM | –
5 | [2H]C([2H])([2H])Nc1ncc(-c2nc3ccccn3n2)c2cc(NC(=O)C3CC3F)ncc12 (racemic) [Example 564, N-(5-([1,2,4]triazolo[1,5-a]pyridin-2-yl)-8-((methyl-d3)amino)-2,7-naphthyridin-3-yl)-2-fluorocyclopropane-1-carboxamide] | ≤ 500 nM | – | ≤ 100 nM | –
6 | CNc1ncc(C#Cc2ccc3c(c2)OCO3)c2cc(NC(=O)C3CC3)ncc12 [Example 997, N-[5-[2-(1,3-benzodioxol-5-yl)ethynyl]-8-(methylamino)-2,7-naphthyridin-3-yl]cyclopropanecarboxamide] | – | ≤ 100 nM | – | IC50 ([1]; IFNa-stimulated pSTAT5 (Tyr694/699), read-out: Cellular_THP1_IFNa-pSTATS_TYK2): ≤ 500 nM
7 | CNc1ncc(C2=CCC(c3ncn(C)n3)C2)c2cc(NC(=O)C3CC3)ncc12 (centres unmarked) [Example 834, N-(5-(4-(1-methyl-1H-1,2,4-triazol-3-yl)cyclopent-1-en-1-yl)-8-(methylamino)-2,7-naphthyridin-3-yl)cyclopropanecarboxamide] | > 500 nM | ≤ 100 nM | – | –
8 | CNc1ncc(-c2ccncc2OC)c2cc(NC(=O)C3CC3)ncc12 [Example 8, N-(5-(3-methoxypyridin-4-yl)-8-(methylamino)-2,7-naphthyridin-3-yl)cyclopropanecarboxamide] | – | – | – | IC50 [1, 5]: > 500 nM; Kd (TYK2 JH2; [6]): ≤ 100 nM
9 | CNc1ncc(-c2nc3ccc(N4CCO[C@@H](C)C4)c(Cl)n3n2)c2cc(NC(=O)C3CC3)ncc12 [Example 509, (S)—N-(5-(5-chloro-6-(2-methylmorpholino)-[1,2,4]triazolo[1,5-a]pyridin-2-yl)-8-(methylamino)-2,7-naphthyridin-3-yl)cyclopropanecarboxamide] | ≤ 500 nM | – | ≤ 100 nM | –
10 | CNc1ncc(-c2nc(-c3ncnn3C)co2)c2cc(NC(=O)C3CC3)ncc12 [Example 831, N-(5-(4-(1-methyl-1H-1,2,4-triazol-5-yl)oxazol-2-yl)-8-(methylamino)-2,7-naphthyridin-3-yl)cyclopropanecarboxamide] | > 500 nM | ≤ 100 nM | – | –
11 | CNc1ncc(-c2ccc(OC(F)(F)F)cc2)c2cc(NC(=O)C3CC3)ncc12 [Example 110, N-(8-(methylamino)-5-(4-(trifluoromethoxy)phenyl)-2,7-naphthyridin-3-yl)cyclopropanecarboxamide] | – | – | – | IC50 [1, 5]: > 500 nM; Kd (TYK2 JH2; [6]): ≤ 100 nM
12 | CNc1ncc(-c2ccc(Oc3ccncc3)cc2)c2cc(NC(=O)C3CC3)ncc12 [Example 858, N-(8-(methylamino)-5-(4-(pyridin-4-yloxy)phenyl)-2,7-naphthyridin-3-yl)cyclopropanecarboxamide] | ≤ 500 nM | ≤ 100 nM | – | –
13 | CNc1ncc(C#Cc2ccc(Oc3cn(C)c(C)n3)cc2)c2cc(NC(=O)C3CC3)ncc12 [Example 970, N-(5-((4-((1,2-dimethyl-1H-imidazol-4-yl)oxy)phenyl)ethynyl)-8-(methylamino)-2,7-naphthyridin-3-yl)cyclopropanecarboxamide] | ≤ 500 nM | ≤ 100 nM | – | –
14 | CNc1ncc(-c2ccccc2)c2cc(NC(=O)C3CC3)nnc12 [Example 178, N-(8-(methylamino)-5-phenylpyrido[3,4-c]pyridazin-3-yl)cyclopropanecarboxamide] | – | – | – | IC50 [1, 5]: > 500 nM; Kd (TYK2 JH2; [6]): ≤ 100 nM
15 | CNc1ncc(C#Cc2ccc(OC)cn2)c2cc(NC(=O)C3CC3)nnc12 [Example 884, N-(5-((5-methoxypyridin-2-yl)ethynyl)-8-(methylamino)pyrido[3,4-c]pyridazin-3-yl)cyclopropanecarboxamide] | ≤ 500 nM | ≤ 100 nM | – | –

Continued, in another order:

Row | IC50 [1, 2] | Kd (TYK2 JH2; [3]) | Kd (TYK2 JH2; [4]) | SMILES | further results
16 | ≤ 500 nM | – | ≤ 100 nM | CNc1ncc(-c2nc3cc(OC4CCOC4)ccc3o2)c2cc(NC(=O)C3CC3)ncc12 (centres unmarked) [Example 229, N-(8-(methylamino)-5-(5-((tetrahydrofuran-3-yl)oxy)benzo[d]oxazol-2-yl)-2,7-naphthyridin-3-yl)cyclopropanecarboxamide] | –
17 | ≤ 500 nM | – | ≤ 100 nM | CNc1ncc(-c2nc3cc(N4CCOCC4)ccc3o2)c2cc(NC(=O)[C@@H]3C[C@@H]3F)ncc12 [Example 424, (1S,2S)-2-fluoro-N-(8-(methylamino)-5-(5-morpholinobenzo[d]oxazol-2-yl)-2,7-naphthyridin-3-yl)cyclopropane-1-carboxamide] | –
18 | ≤ 500 nM | – | ≤ 100 nM | CNc1ncc(-c2nc3ccc(N4CC5CCC(C4)O5)cn3n2)c2cc(NC(=O)C3CC3)ncc12 [Example 584, N-(5-(6-(8-oxa-3-azabicyclo[3.2.1]octan-3-yl)-[1,2,4]triazolo[1,5-a]pyridin-2-yl)-8-(methylamino)-2,7-naphthyridin-3-yl)cyclopropanecarboxamide] | –
19 | ≤ 500 nM | – | ≤ 100 nM | CNc1ncc(-c2nc3cc(C)ccc3o2)c2cc(NC(=O)C3CC3)ncc12 [Example 207, N-(8-(methylamino)-5-(5-methylbenzo[d]oxazol-2-yl)-2,7-naphthyridin-3-yl)cyclopropanecarboxamide] | –
20 | ≤ 500 nM | – | ≤ 100 nM | CNc1ncc(-c2nc3cc(N4CC(CC(F)F)C4)ccc3o2)c2cc(NC(=O)C3CC3)ncc12 [Example 319, N-(5-(5-(3-(2,2-difluoroethyl)azetidin-1-yl)benzo[d]oxazol-2-yl)-8-(methylamino)-2,7-naphthyridin-3-yl)cyclopropanecarboxamide] | –
21 | ≤ 500 nM | – | ≤ 100 nM | CNc1ncc(-c2nc3cc(OCC(C)(C)OC)ccc3o2)c2cc(NC(=O)C3CC3)ncc12 [Example 256, N-(5-(5-(2-methoxy-2-methylpropoxy)benzo[d]oxazol-2-yl)-8-(methylamino)-2,7-naphthyridin-3-yl)cyclopropanecarboxamide] | –
22 | ≤ 500 nM | – | ≤ 100 nM | [2H]C([2H])([2H])Nc1ncc(-c2nc3cc(OC)ccc3o2)c2cc(NC(=O)[C@H]3C[C@H]3C)ncc12 (racemic) [Example 436, N-(5-(5-methoxybenzo[d]oxazol-2-yl)-8-((methyl-d3)amino)-2,7-naphthyridin-3-yl)-2-methylcyclopropane-1-carboxamide] | –
23 | ≤ 500 nM | ≤ 100 nM | – | CNc1ncc(-c2nc3cc(N4CCO[C@@H](COC)C4)ccc3o2)c2cc(NC(=O)C3CC3)ncc12 (single isomer, unassigned) [Example 920] | –
24 | ≤ 500 nM | – | ≤ 100 nM | CNc1ncc(-c2nc3ccc(C)cc3o2)c2cc(NC(=O)C3CC3)ncc12 [Example 206, N-(8-(methylamino)-5-(6-methylbenzo[d]oxazol-2-yl)-2,7-naphthyridin-3-yl)cyclopropanecarboxamide] | –
25 | ≤ 500 nM | ≤ 100 nM | – | CNc1ncc(C#Cc2ccnc(C(F)F)c2)c2cc(NC(=O)C3CC3)ncc12 [Example 621, N-(5-((2-(difluoromethyl)pyridin-4-yl)ethynyl)-8-(methylamino)-2,7-naphthyridin-3-yl)cyclopropanecarboxamide] | –
26 | ≤ 500 nM | – | ≤ 100 nM | CNc1ncc(-c2nc3c(N4CC(OC)C4)cccc3o2)c2cc(NC(=O)C3CC3)ncc12 [Example 221, N-(5-(4-(3-methoxyazetidin-1-yl)benzo[d]oxazol-2-yl)-8-(methylamino)-2,7-naphthyridin-3-yl)cyclopropanecarboxamide] | –
27 | ≤ 500 nM | – | ≤ 100 nM | [2H]C([2H])([2H])Nc1ncc(-c2nc3cc(OC)ccc3o2)c2cc(NC(=O)[C@@H]3C[C@@H]3C)ncc12 (single isomer, unassigned) [Example 437] | –
28 | ≤ 500 nM | – | ≤ 100 nM | CNc1ncc(-c2nc3cc(OCC[S+](C)[O-])ccc3o2)c2cc(NC(=O)C3CC3)ncc12 (centres unmarked) [Example 353, N-(8-(methylamino)-5-(5-(2-(methylsulfinyl)ethoxy)benzo[d]oxazol-2-yl)-2,7-naphthyridin-3-yl)cyclopropanecarboxamide] | –
